Experiments:
P. falciparum cultures = assay: Combination assay of AID-X-2020 and artemisinin (isobologram, FIC); format: cell-based, Plasmodium falciparum; settings: combined with artemisinin in different ratios
Method: For assays of AID-X-2020 and artemisinin, serial dilutions of both compounds were prepared at different concentration ratios (1:0, 0:1, 1:1, 1:2, 2:1, 1:5 and 5:1).
To assess the synergistic effect of AID-X-2020 and artemisinin, IC50 values for each individual compound in the mixtures were calculated as described above and plotted in an isobologram (“x” value=AID-X-2020 IC50 and “y” value=artemisinin IC50). Fractional inhibitory concentration (FIC) values were calculated by dividing the IC50 of one of the compounds in the mixture by the IC50 of the same compound in the 1:0 or 0:1 ratio mixture.

[1] = system: human umbilical vein endothelial cell cultures; assay: Cytotoxicity (CC50) and in vitro therapeutic index; format: cell-based
[2] = Cytotoxicity (CC50) and in vitro therapeutic index; format: cell-based, human; settings: human umbilical vein endothelial cells (HUVEC); human umbilical vein endothelial cell cultures
P. falciparum 3D7 strain = assay: Dot blot / Western blot of treated P. falciparum cultures (ubiquitinated proteins, amyloid fibrils); format: cell-based, Plasmodium falciparum
Method: Cultures of the P. falciparum 3D7 strain were sorbitol synchronized in ring stages, and after 24 h were treated for 90 min with AID-X-2020 concentrations ranging from 33 nM to 33 μM. After that time, cultures were spun down and pellets were washed once with ice-cold PBS supplemented with EDTA-free protease inhibitor cocktail (PIC, Roche; 1 PIC tablet/10 mL PBS). For anti-ubiquitin Western blots, PBS was also supplemented with 20 mM N-ethylmaleimide. […] Protein extracts were quantified with the bicinchoninic acid assay (ThermoFisher Scientific), following the manufacturer's instructions. […]
For Western blots, 15 μg of saponin-extracted proteins were incubated for 5 min at 95° C. diluted in Laemmli solution (0.14 M SDS, 0.125 M tris-HCl, pH 6.8, 20% glycerol, 10% 2-mercaptoethanol, 3 mM bromophenol blue) and resolved by SDS-PAGE in 12% bis-tris acrylamide (Bio-Rad) gels run at 80 V until samples entered the resolving gel and at 120 V afterwards. […] After probing with secondary antibodies, for both dot blot and Western blot membranes, four washes with TBS-Tween and one last wash with TBS were done and peroxidase substrate (ECL Prime Western Blotting Detection Reagent, Amersham Life Science, Inc.) was poured on the membrane and chemiluminescent signal was measured in a LAS 4000 reader (ImageQuant) at different exposure times.

preformed Aβ40 fibrils = biological target: T1, preformed Aβ40 fibrils (Homo sapiens, UniProt P05067); assay: Disaggregation of preformed Aβ40 fibrils; format: biochemical; settings: 24 h after fibril formation, ThT and TEM
T1 construct: Amyloid-β peptide fragment 1-40 (Aβ40); purchased GenScript
Method: To test the effect of AID-X-2020 on already formed amyloid fibrils, Aβ40 DMSO solutions were diluted to 25 μM in PBS and incubated as above in order to allow fibril formation. Then, AID-X-2020 was added at different concentrations (0.1 μM AID-X-2020, 1 μM AID-X-2020 and 10 μM AID-X2020) and the mixture was incubated in the same conditions for another 24 h. The final samples always contained less than 5% DMSO to avoid interference of this solvent on Aβ40 amyloid fibril formation. Finally, ThT treatment and TEM analysis was performed as described in section 3.1 of EXAMPLE 3. The analysis of aggregation inhibition and disaggregation performed with aggregative peptides present in P. falciparum proteins were conducted in the same way.

[3] = system: artemisinin-resistant P. falciparum strains (3D7 and Cam 3.11 with K13 mutations); assay: Growth inhibition, artemisinin-resistant strains; format: cell-based; settings: Plasmodium falciparum, 3D7, read-out: IC50 in artemisinin-resistant strains
Description: (§1) P. falciparum parasites of chloroquine-sensitive (3D7 strain) and chloroquine- and artemisinin-resistant strains were processed as described in section 1.1.3 of EXAMPLE 1.
(§2) In particular, the P. falciparum resistant strains were the following: (1) strain W2 MRA-157 (BEI Resources, managed by ATCC) which is chloroquine-resistant; (2) strains 3D7 harboring the K13 mutations associated to artemisinin resistance, either M5791 or R561H (both provided by Dr. David A. Fidock and referenced in Stokes, B. H. et al., 2021); (3) Cam 3.11 strain which is chloroquine and sulfadoxine/pyrimethamine-resistant; and (4) Cam 3.11 strain modified to carry K13 mutations associated to artemisinin-resistant strains, either R561H or R539T, therefore being multiresistant strains. All Cam 3.11 strains (3) and (4) were provided by Dr. David A. Fidock and are referenced in Straimer, J. et al., 2015 and Stokes, B. H. et al., 2021.
(§3) Then, the required amount of AID-X-2020 was added to each well at different concentrations (0.0001, 0.001, 0.01, 1 and 10 μM) and triplicates.

P. falciparum W2 strain = assay: Growth inhibition, chloroquine-resistant W2 strain; format: cell-based; settings: Plasmodium falciparum
Description: as §1, §2, §3

[4] = system: P. falciparum ring or trophozoite stage cultures; assay: Stage of growth inhibition analysis; format: cell-based, Plasmodium falciparum; settings: added to ring stages at its IC80
Method: For stage of growth inhibition analysis, P. falciparum cultures were synchronized at ring or trophozoite stages by repeated treatment with 5% sorbitol or 70% Percoll, respectively. Half of each culture remained untreated and the other half was treated with the IC80 of AID-X-2020. At different time points, culture samples were stained with Giemsa and the number of rings, early and mature trophozoites and schizonts was counted by microscopic examination of at least 100 pRBCs for each sample. Pictures were taken with a Nikon Eclipse 50i microscope equipped with a DS-Fi1 camera (Nikon).

T1 sequence (P05067 672-711 limits assumed, species assumed): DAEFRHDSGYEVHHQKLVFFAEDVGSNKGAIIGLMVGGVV

CCN(CC)c1ccc(/C=C/c2cc[n+](CCCCCCCCCC[n+]3ccc(/C=C/c4ccc(N(CC)CC)cc4)c(C)c3)cc2C)cc1 [AID-X-2020, 1,1′-(decane-1,10-diyl)bis{4-[(E)-4-(diethylamino)styryl]-3-methylpyridin-1-ium} dibromide]
ZFIC values (P. falciparum cultures): higher than 1.5 | Therapeutic index in vitro ([1]; 50% cytotoxic concentration (CC50)/IC50 in 3D7 strain): 23.3 | therapeutic index (CC50/IC50) ([1]; HUVEC CC50, text value): 37.8 | CC50 [2]: 3400 nM | effect on ubiquitinated proteins (P. falciparum 3D7 strain; 90 nM treatment of P. falciparum cultures, along time): reduction in ubiquitinated proteins | concentration inhibiting amyloid fibril formation (P. falciparum 3D7 strain; 90 min exposure, dot blot): > 3 µM | concentration disassembling preformed Aβ40 fibrils (preformed Aβ40 fibrils): > 90 nM | IC50 [3]: 90 to 160 nM | IC50 (P. falciparum W2 strain): 90 ± 1 nM | stage of growth arrest [4]: arrested the life cycle of the pathogen at trophozoite stage

— patent US20240415825A1, “COMPOUNDS FOR THE TREATMENT OF MALARIA” (FUNDACIÓ INSTITUT DE BIOENGINYERIA DE CATALUNYA, priority 2021, published 2024)
